This note sets out measurements from paper PMC10004634 (PLOS ONE, 2023).

Among the targets are CLK1 (Homo sapiens, UniProt P49759); RET(V804L) (Homo sapiens, UniProt P07949, V804L); MAP3K4 (Homo sapiens, UniProt Q9Y6R4); SRPK2 (Homo sapiens, UniProt P78362); PRKD1 (Homo sapiens, UniProt Q15139); INSRR (Homo sapiens, UniProt P14616); PIK3CA(M1043I) (Homo sapiens, UniProt P42336, M1043I); IGF1R (Homo sapiens, UniProt P08069); GRK7 (Homo sapiens, UniProt Q8WTQ7); ROCK1 (Homo sapiens, UniProt Q13464); KIT(V559D,V654A) (Homo sapiens, UniProt P10721, V559D/V654A); DDR1 (Homo sapiens, UniProt Q08345); TAOK3 (Homo sapiens, UniProt Q9H2K8).

Assay in all cases: biochemical
What all share (parameters): KINOMEscan scanMAX competition binding, DNA-tagged kinases, qPCR read-out, percent control at 300 nM
(Real-time PCR tracks product formation cycle by cycle.)

In the next test the target is T1, ABL1-phosphorylated (Homo sapiens, UniProt P00519).
T1 construct: phosphorylated

For another test, the target named is T2, ERK1 (Homo sapiens, UniProt P27361).
T2 construct: gene MAPK3

The next test addresses T3, HPK1 (Homo sapiens, UniProt Q92918).
T3 construct: gene MAP4K1

The next test has as its target T4, PIP5K2B (Homo sapiens, UniProt P78356).
T4 construct: gene PIP4K2B

For the next test, the target named is T5, NIM1 (Homo sapiens, UniProt Q8IY84).
T5 construct: gene NIM1K

The target of test [1] is T6, RSK4(Kin.Dom.1-N-terminal) (Homo sapiens, UniProt Q9UK32).
T6 construct: gene RPS6KA6; Kin.Dom.1-N-terminal

A further test concerns the target T7, ASK2 (Homo sapiens, UniProt O95382).
T7 construct: gene MAP3K6

The next test addresses T8, ARK5 (Homo sapiens, UniProt O60285).
T8 construct: gene NUAK1

The target in another test is T9, p38-beta (Homo sapiens, UniProt Q15759).
T9 construct: gene MAPK11

A further test deals with T10, MLK2 (Homo sapiens, UniProt Q02779).
T10 construct: gene MAP3K10

Setting [2] is: read-out: Percent control / Zanubrutinib.
[3] abbreviates: read-out: Percent control / Ibrutinib.
[4] abbreviates: read-out: Percent control / Acalabrutinib.

Where two headings read alike, the source gives them in different places.

MAP3K4, sequence (Q9Y6R4 whole entry): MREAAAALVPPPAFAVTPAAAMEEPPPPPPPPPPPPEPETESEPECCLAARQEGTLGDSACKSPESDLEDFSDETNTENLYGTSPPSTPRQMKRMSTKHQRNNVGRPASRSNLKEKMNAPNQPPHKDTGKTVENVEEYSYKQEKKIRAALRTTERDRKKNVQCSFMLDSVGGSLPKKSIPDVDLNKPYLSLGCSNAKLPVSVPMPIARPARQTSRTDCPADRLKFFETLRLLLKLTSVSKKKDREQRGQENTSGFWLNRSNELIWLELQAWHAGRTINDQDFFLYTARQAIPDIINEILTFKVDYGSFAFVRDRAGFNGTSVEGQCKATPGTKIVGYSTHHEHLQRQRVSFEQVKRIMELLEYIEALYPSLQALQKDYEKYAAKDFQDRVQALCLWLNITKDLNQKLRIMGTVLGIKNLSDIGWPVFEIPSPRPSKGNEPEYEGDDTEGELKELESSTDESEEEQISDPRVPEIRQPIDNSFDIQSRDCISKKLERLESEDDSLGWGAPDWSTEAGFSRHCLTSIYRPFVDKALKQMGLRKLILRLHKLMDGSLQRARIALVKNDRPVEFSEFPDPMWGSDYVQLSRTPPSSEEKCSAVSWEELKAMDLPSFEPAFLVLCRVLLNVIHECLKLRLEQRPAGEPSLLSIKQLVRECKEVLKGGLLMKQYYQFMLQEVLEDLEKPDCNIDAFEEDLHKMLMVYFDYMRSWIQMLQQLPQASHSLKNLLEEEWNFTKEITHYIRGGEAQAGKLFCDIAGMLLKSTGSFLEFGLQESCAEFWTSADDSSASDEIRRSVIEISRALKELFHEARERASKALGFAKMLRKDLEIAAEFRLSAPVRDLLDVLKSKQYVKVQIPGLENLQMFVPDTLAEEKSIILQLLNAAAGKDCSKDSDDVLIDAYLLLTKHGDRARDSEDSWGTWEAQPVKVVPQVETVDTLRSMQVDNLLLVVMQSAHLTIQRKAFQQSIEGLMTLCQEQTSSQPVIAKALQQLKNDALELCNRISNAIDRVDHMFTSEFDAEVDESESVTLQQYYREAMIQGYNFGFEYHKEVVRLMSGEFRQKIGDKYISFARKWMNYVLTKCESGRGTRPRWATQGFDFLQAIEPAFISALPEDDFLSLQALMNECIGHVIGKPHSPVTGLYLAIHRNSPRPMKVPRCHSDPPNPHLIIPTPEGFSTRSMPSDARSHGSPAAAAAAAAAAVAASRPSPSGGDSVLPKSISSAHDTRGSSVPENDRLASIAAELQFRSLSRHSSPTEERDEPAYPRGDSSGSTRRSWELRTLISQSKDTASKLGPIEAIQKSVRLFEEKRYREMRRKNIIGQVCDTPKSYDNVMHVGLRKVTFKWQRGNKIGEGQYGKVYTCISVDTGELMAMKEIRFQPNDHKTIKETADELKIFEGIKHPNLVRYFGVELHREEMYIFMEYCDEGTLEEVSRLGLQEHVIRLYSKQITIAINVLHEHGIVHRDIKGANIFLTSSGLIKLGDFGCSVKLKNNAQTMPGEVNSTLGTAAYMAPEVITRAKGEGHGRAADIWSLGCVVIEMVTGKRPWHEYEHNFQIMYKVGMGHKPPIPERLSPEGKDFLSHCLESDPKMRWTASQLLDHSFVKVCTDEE
IGF1R, sequence (P08069 whole entry): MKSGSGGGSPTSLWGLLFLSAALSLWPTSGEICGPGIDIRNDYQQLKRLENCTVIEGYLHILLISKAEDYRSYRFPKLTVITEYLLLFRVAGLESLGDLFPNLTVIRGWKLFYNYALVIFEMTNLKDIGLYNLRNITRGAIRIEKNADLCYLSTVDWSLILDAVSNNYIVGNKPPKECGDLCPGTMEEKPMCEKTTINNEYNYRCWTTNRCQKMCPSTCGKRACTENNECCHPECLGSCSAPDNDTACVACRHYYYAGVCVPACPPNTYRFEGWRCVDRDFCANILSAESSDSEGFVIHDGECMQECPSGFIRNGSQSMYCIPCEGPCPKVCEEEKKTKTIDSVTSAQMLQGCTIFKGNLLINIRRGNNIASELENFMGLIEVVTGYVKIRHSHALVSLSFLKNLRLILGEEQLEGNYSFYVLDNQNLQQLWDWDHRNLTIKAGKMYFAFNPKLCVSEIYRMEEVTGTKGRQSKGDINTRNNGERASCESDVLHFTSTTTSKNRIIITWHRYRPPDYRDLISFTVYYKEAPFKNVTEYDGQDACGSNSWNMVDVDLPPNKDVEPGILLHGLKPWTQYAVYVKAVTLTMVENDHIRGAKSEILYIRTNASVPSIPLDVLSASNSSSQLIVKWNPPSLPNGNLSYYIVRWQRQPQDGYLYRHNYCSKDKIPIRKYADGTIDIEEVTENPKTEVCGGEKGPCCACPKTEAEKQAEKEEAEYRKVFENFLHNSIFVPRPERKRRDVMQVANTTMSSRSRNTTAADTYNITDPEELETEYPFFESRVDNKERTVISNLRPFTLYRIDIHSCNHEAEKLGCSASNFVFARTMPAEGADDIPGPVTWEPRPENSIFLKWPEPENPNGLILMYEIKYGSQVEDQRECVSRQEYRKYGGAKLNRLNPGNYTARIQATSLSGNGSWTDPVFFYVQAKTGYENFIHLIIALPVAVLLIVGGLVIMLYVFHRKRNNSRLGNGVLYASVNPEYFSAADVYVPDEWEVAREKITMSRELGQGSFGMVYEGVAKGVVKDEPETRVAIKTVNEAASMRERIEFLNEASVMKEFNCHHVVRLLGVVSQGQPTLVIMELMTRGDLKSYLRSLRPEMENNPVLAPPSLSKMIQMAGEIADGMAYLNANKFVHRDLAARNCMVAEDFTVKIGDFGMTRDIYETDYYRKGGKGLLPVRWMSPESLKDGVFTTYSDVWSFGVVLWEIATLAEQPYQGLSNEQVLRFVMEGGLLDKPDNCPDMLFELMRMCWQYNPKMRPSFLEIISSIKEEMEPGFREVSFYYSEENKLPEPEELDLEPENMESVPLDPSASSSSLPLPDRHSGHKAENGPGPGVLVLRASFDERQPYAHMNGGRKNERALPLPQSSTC
RET(V804L), sequence (P07949 whole entry V804L): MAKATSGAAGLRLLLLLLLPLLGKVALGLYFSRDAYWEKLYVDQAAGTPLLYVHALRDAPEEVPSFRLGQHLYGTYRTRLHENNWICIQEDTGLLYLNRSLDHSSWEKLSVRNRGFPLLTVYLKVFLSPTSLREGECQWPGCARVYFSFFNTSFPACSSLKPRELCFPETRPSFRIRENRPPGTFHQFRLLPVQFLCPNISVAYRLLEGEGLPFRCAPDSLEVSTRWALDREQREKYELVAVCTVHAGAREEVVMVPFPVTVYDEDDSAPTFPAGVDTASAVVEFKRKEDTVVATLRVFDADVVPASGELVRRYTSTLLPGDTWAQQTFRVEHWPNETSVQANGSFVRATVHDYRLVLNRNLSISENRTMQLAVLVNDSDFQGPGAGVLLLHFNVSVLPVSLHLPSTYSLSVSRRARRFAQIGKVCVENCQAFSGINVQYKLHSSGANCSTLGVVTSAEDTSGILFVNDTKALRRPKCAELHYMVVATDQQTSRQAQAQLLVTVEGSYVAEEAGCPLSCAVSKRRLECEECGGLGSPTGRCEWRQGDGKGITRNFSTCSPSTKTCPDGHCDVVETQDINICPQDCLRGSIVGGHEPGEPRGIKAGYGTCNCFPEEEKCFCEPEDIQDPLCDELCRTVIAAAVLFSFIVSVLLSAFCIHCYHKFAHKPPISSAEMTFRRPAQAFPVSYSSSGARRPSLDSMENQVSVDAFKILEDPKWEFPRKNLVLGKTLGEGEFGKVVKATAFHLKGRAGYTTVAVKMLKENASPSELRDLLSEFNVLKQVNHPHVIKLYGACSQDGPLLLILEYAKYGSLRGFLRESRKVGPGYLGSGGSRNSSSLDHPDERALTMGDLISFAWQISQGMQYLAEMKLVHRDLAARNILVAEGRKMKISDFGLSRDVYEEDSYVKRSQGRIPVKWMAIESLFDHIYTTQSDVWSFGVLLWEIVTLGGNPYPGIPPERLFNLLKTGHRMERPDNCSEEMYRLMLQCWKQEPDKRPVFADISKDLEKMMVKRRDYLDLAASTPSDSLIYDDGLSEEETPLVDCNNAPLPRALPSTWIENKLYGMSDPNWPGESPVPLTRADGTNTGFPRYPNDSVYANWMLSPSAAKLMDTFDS
T3 sequence (Q92918 whole entry): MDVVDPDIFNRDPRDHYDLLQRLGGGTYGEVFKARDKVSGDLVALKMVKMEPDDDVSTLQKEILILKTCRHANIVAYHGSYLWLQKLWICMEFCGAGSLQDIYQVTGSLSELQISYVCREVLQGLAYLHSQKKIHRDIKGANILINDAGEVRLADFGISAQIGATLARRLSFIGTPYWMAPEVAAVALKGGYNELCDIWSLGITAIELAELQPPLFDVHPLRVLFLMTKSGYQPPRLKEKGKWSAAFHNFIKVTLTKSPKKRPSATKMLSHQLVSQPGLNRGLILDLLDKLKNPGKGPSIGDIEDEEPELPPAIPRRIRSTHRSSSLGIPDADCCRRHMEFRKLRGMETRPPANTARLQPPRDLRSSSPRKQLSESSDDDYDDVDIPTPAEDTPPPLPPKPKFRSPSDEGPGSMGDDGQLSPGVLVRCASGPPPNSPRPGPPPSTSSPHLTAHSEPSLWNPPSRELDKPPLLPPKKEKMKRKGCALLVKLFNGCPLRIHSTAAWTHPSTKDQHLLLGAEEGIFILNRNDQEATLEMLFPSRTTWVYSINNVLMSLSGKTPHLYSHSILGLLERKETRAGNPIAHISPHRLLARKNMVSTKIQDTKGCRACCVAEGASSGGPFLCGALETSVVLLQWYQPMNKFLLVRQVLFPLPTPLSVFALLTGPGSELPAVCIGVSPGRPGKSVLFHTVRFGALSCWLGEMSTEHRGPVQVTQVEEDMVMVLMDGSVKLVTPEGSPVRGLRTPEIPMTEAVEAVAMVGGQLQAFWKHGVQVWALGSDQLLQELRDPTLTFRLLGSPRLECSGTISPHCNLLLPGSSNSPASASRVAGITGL

Turning to `C=CC(=O)N1CCC([C@@H]2CCNc3c(C(N)=O)c(-c4ccc(Oc5ccccc5)cc4)nn32)CC1` [Zanubrutinib], the remaining binding at 0.3 µM on CLK1 (setting [2]) came to 90%; at RET(V804L) (setting [2]), 100%; at ABL1-phosphorylated (setting [2]), 77%; at ERK1 (setting [2]), 87%; on MAP3K4 (setting [2]), 75%; at SRPK2 (setting [2]) it was 96%. Further, the remaining binding at 0.3 µM on HPK1 (setting [2]) is 100%; on PRKD1 (setting [2]) it was 82%; on INSRR (setting [2]), 96%; at PIK3CA(M1043I) (setting [2]), 90%; at IGF1R (setting [2]) it was 96%; at PIP5K2B (setting [2]), 88%. In addition, the remaining binding at 0.3 µM on GRK7 (setting [2]) was 100%; at NIM1 (setting [2]), 97%; at ROCK1 (setting [2]) it was 92%; in [1] (setting [2]), 100%; on ASK2 (setting [2]), 55%; on KIT(V559D,V654A) (setting [2]) it was 90%. The remaining binding at 0.3 µM is 100% at DDR1 (setting [2]), 94% on ARK5 (setting [2]) and 82% at p38-beta (setting [2]).

`CC#CC(=O)N1CC[C@@H](n2c(=O)n(-c3ccc(Oc4ccccc4)cc3)c3c(N)ncnc32)C1` [Tirabrutinib]: the remaining binding at 0.3 µM on MLK2 (read-out: Percent control / Tirabrutinib) came to 77%.

For `C=CC(=O)N1CCC[C@@H](n2nc(-c3ccc(Oc4ccccc4)cc3)c3c(N)ncnc32)C1` [Ibrutinib], the remaining binding at 0.3 µM at TAOK3 (setting [3]) is 98%; on MLK2 (setting [3]) it was 90%; on p38-beta (setting [3]), 85%.

As for `CC#CC(=O)N1CCC[C@H]1c1nc(-c2ccc(C(=O)Nc3ccccn3)cc2)c2c(N)nccn12` [Acalabrutinib], the remaining binding at 0.3 µM at CLK1 (setting [4]) stood at 92%; at RET(V804L) (setting [4]), 99%; at ABL1-phosphorylated (setting [4]) it was 95%; at ERK1 (setting [4]), 92%; at TAOK3 (setting [4]) it was 99%; at MAP3K4 (setting [4]), 78%. Besides, the remaining binding at 0.3 µM at SRPK2 (setting [4]) is 90%; on HPK1 (setting [4]), 93%; on PRKD1 (setting [4]), 95%; on INSRR (setting [4]), 91%; on PIK3CA(M1043I) (setting [4]), 90%; on IGF1R (setting [4]) it was 91%. Moreover, the remaining binding at 0.3 µM is 93% at PIP5K2B (setting [4]); 74% at GRK7 (setting [4]); 99% at NIM1 (setting [4]); 93% on ROCK1 (setting [4]); 82% in test [1] (setting [4]); 87% at ASK2 (setting [4]). Further, the results for the remaining binding at 0.3 µM at KIT(V559D,V654A) (setting [4]), on DDR1 (setting [4]) and on ARK5 (setting [4]) were 94%, 86% and 69%, respectively.
